Results: PubChem BioAssay (NCI)
Where “and” joins values, the source holds several entries; their conditions need not be identical. Identical values can stand only once.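 Assay format: 96-well plates, 48-hour exposure. Here, GI50 denotes the concentration required for 50% inhibition of growth. TGI: total growth inhibition.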

Experiments:
Test in all cases: NCI-60 cell line screen, 48 h
[1] = test system: ACHN renal
[2] = test system: UACC-257 melanoma
[3] = test system: A498 renal
[4] = test system: HOP-62 NSCLC
[5] = test system: TK-10 renal
[6] = test system: CCRF-CEM leukemia
[7] = test system: OVCAR-8 ovarian
[8] = test system: UACC-62 melanoma
[9] = test system: SF-295 CNS
[10] = test system: PC-3 prostate

Compound	TGI [1]	TGI [2]	TGI [3]	TGI [4]	TGI [5]	TGI [6]	TGI [7]	TGI [8]	TGI [9]	TGI [10]	GI50 [1] [µM]	GI50 [2]	GI50 [3] [µM]	GI50 [4] [µM]	GI50 [5] [µM]	GI50 [6]	GI50 [7] [µM]	GI50 [8]	GI50 [9] [µM]	GI50 [10] [µM]
Cc1ccc(CNc2ccc(Br)cc2)cc1	41.7 µM	> 100 µM	> 100 µM	> 100 µM	> 100 µM	78.4 µM	65.3 µM	> 100 µM	> 100 µM	> 100 µM	–	–	–	–	–	–	–	–	–	–
O=C(O)C1=C/C(=C(/c2ccccc2)c2cc(C(=O)O)c(O)c3ccccc23)c2ccccc2C1=O	> 100 µM	> 100 µM	> 100 µM	> 100 µM	> 100 µM	> 100 µM	> 100 µM	> 100 µM	> 100 µM	> 100 µM	–	–	–	–	–	–	–	–	–	–
CCCCN(CCCC)C(=O)[C@H](CC)[C@@H]1CC[C@@H](C)[C@@H]([C@H](C)[C@@H](O)[C@@H](C)C(=O)[C@H](CC)C2O[C@]3(C=C[C@@H](O)[C@]4(CC[C@@](C)([C@H]5CC[C@](O)(CC)[C@H](C)O5)O4)O3)[C@H](C)C[C@@H]2C)O1 (some centres undefined)	10.5 µM	9.71 µM	6.24 µM	27.4 µM	> 100 µM	11.7 µM	65.4 µM	3.6 µM	6.38 µM	16.8 µM	3.04	2.9 µM	1.99	3.79	3.57	3.13 µM	3.43	1.47 µM	2.06	2.05
CC1CC2C3CCC4=CC(=O)C=CC4(C)C3(F)C(O)CC2(C)C1(O)C(=O)COP(=O)(O)O (centres undefined)	> 500 µM	> 500 µM	> 500 µM	> 500 µM	> 500 µM	> 500 µM	> 500 µM	> 500 µM	> 500 µM	> 500 µM	> 500	> 500 µM	> 500	> 500	> 500	> 500 µM	> 500	> 500 µM	> 500	> 500
CC(C)(C)c1cc(C(=O)Nc2ccccc2C(=O)NCCN)cc(C(C)(C)C)c1	3.46 µM	3.93 µM	6.44 µM	3.21 µM	3.12 µM	6.36 µM	4.2 µM	3.44 µM	3.59 µM	3.5 µM	1.84	1.9 µM	2.38	1.67	1.68	2.5 µM	2.08	1.83 µM	1.88	1.79
CN1CCN(CC(=O)N(C)c2ccc(N=C(c3ccccc3)c3c(O)[nH]c4ccc(C#N)cc34)cc2)CC1	10.9 µM	6.2 µM	2.46 µM	16.5 µM	24.5 µM	12.5 µM	> 100 µM	14.3 µM	15.8 µM	17 µM	3.06	2.5 µM	0.176	3.99	10.5	1.2 µM	4.87	4.57 µM	3.14	2.37
CC(C)/C=C1\CCC(CN(C)C)C1=O (centres undefined)	12.5 µM	10.8 µM	16.7 µM	46.3 µM	5.96 µM	5.34 µM	6.97 µM	32.6 µM	31.2 µM	14.5 µM	–	–	–	–	–	–	–	–	–	–
CSc1ccc(C2=C(c3ccccc3)C(=O)OC2)cc1	33.4 µM	> 100 µM	13.9 µM	> 70 µM	18.4 µM	2.85 µM	> 100 µM	53.8 µM	1.98 µM	21.1 µM	0.517	–	3.13	1.96	1.49	0.508 µM	0.639	0.715 µM	0.597	0.884
CC(C)=CCc1cc2c(cc1O)C1=C(C(=O)C3=C(C1=O)S(=O)(=O)CCN3)C(C=C(C)C)O2 (centres undefined)	5.65 µM	1.5 µM	5.96 µM	4.63 µM	10.4 µM	8.98 µM	2.12 µM	1.21 µM	5.1 µM	12.8 µM	2.27	0.482 µM	3.54	2.33	4.96	0.696 µM	0.552	0.419 µM	2.38	1.6
O=C(CS(=O)(=O)c1nc2ccccc2nc1-c1ccccc1)Nc1ccc(F)cc1	> 100 µM	> 100 µM	> 100 µM	> 100 µM	> 100 µM	18.8 µM	> 100 µM	> 100 µM	> 100 µM	> 100 µM	> 100	> 100 µM	21.6	> 100	> 100	3.15 µM	94.3	40.1 µM	> 100	26
c1ccc(-c2oc(-c3ccccc3)c(CN3CCCCC3)c2CN2CCCCC2)cc1	10.2 µM	8.08 µM	11.8 µM	21.8 µM	19 µM	9.97 µM	17.1 µM	4.35 µM	6.58 µM	7.73 µM	2.54	3 µM	2.41	4.69	4.58	2.54 µM	3.91	1.79 µM	2.05	2.34
C=C1C(=O)O[C@H]2[C@H]1CC/C(COC(=O)c1cc(OC)c(OC)c(OC)c1)=C\CC[C@@]1(C)O[C@@H]21	2.02 µM	3.12 µM	8.56 µM	11.5 µM	2.7 µM	2.28 µM	10.3 µM	2.67 µM	15.8 µM	4.49 µM	0.743	1.39 µM	2.57	2.4	1.22	0.293 µM	1.85	1.18 µM	3.84	1.8
O=C1NC(=S)S/C1=C\c1cn(-c2ccccc2)nc1-c1ccccc1	21.4 µM	73.9 µM	18.2 µM	68.4 µM	85.2 µM	69.8 µM	> 100 µM	15.1 µM	17.2 µM	> 100 µM	7.4	13.2 µM	2.99	22.7	8	2.5 µM	11.4	3.36 µM	3.33	5.66
C#Cc1cccc(Nc2ncnc3cc(NC(=O)CCl)ccc23)c1	5.66 µM	8.12 µM	7.28 µM	6.77 µM	5.98 µM	2.7 µM	6.58 µM	4.99 µM	6.95 µM	8.33 µM	2.14	3.76 µM	2.77	3.22	1.86	0.626 µM	1.61	1.53 µM	3.51	3.69
COC1=C(N)C(=O)c2nc(-c3nc(C(=O)O)c(C)c(-c4ccc(OC)c(OC)c4O)c3N)ccc2C1=O	0.00376 µM and 0.0263 µM and < 0.01 µM	–	–	0.0407 µM and < 0.01 µM	0.00795 µM and 0.0706 µM	0.0398 µM and 0.0286 µM	0.00226 µM and 0.022 µM and 0.0194 µM	–	0.00323 µM and 0.0236 µM and 0.0136 µM	0.203 µM and 0.0292 µM and 0.0228 µM	–	0.00321 µM and 0.0122 µM and 0.0224 µM	0.00128	–	–	0.0206 µM and 0.00386 µM	–	0.00103 µM and 0.000879 µM and < 0.01 µM	–	0.0298
Cn1cc(/C=C\[N+](=O)[O-])c2ccccc21	> 100 µM	> 100 µM	7.39 µM	> 100 µM	> 100 µM	> 100 µM	86.1 µM	> 100 µM	> 100 µM	> 100 µM	> 100	33.1 µM	3.36	> 100	78.3	25.2 µM	26.9	83.6 µM	52.9	35.5
COc1cc(/C=C2\C(=O)N(Cc3ccc(Cl)cc3)c3ccccc32)cc(OC)c1OC	8.37 µM	26.6 µM	7.97 µM	12.5 µM	30.1 µM	4.82 µM	> 45.2 µM	10 µM	32.3 µM	17.2 µM	2.9	6.04 µM	1.54	3.72	3.09	1.41 µM	3.4	2.21 µM	4.41	2.43
O=C(Nc1ccc(Oc2ccc3nc(NC(=O)c4ccco4)[nH]c3c2)cc1)Nc1cc(C(F)(F)F)ccc1F	6.08 µM	8.74 µM	5.4 µM	10.7 µM	12.8 µM	> 25 µM	6.92 µM	5.48 µM	> 12.2 µM	8.59 µM	1.28	2.25 µM	0.929	3.44	2.57	1.85 µM	1.26	0.844 µM	1.76	1.49
COc1cc(CNCCCCCCN2C(=O)c3cccc4cccc(c34)C2=O)ccc1O	18.4 µM	4.49 µM	21 µM	19.1 µM	24.8 µM	29.3 µM	21.3 µM	26.2 µM	25.4 µM	18.7 µM	5.38	2.15 µM	0.735	5.78	10.1	3.53 µM	4.73	13.1 µM	9.13	4.42
COC(=O)NC1C(C)OC(OC2C/C=C(/C)C3C=CC4C(OC5CC(OC6CCC(OC7CC(O)C(OC8CCC(O)C(C)O8)C(C)O7)C(C)O6)C(OC(C)=O)C(C)O5)C(C)CC(C)C4C3(C)/C(O)=C3/C(=O)OC4(CC(C=O)=CC(O)C4/C=C\2C)C3=O)CC1(C)[N+](=O)[O-] (centres undefined)	2.72 µM	2.47 µM and 11.1 µM	1.65 µM and 0.508 µM	1.81 µM and 0.667 µM	6.2 µM and 1.14 µM	4.86 µM and 1.78 µM	3.85 µM and 2.73 µM	1.47 µM and 0.319 µM	2.76 µM and 4.15 µM	7.29 µM	–	1.09 µM	0.199	0.275	0.418	0.0687 µM	0.265	0.155 µM	0.271	–
O=C1Nc2ccc(Cl)cc2/C1=C\c1c(-c2ccc(Cl)cc2)nc2sc(C3CC3)nn12	12.3 µM	14.4 µM	6.42 µM	4.21 µM	7.97 µM	> 100 µM	11.5 µM	14.5 µM	6.89 µM	19.6 µM	2.77	3.36 µM	1.05	1.75	3.1	19.8 µM	3.12	3.06 µM	2.23	5
Cc1cc(=O)oc2ccc(OC/C=C3\CCC(=O)O3)cc12	2.14 µM	28.7 µM	50.6 µM	29.9 µM	9.23 µM	7.96 µM	25 µM	22.8 µM	41.9 µM	21.2 µM	0.936	12.3 µM	12.3	13.5	1.61	2.61 µM	10	10.3 µM	15.3	3.59
CCOCC1(COCC)CCC(c2[nH]ncc2CN(C)CCNC)CC1	> 100 µM	> 100 µM	> 100 µM	> 100 µM	> 100 µM	> 100 µM	> 100 µM	> 100 µM	> 100 µM	> 100 µM	> 100	> 100 µM	8.25	> 100	> 100	> 100 µM	> 100	> 100 µM	> 100	59.4
O=C(Nc1ccc(Oc2ccc(F)cc2)cc1)[C@@H]1C[C@@H](Cc2ccc(F)cc2)CN1C(=O)Cn1ccnn1	25.2 µM	24.9 µM	27.9 µM	31.5 µM	35.3 µM	> 100 µM	31.9 µM	20.9 µM	14.2 µM	> 37.8 µM	4.93	8.04 µM	8.49	12.3	8.74	5.24 µM	7.16	6.14 µM	3.64	4.42
COc1cc2oc(-c3cccc(C(=O)Nc4ccc(Cl)cc4)c3)cc(=O)c2c(OC)c1OC	> 100 µM	5.72 µM	7.82 µM	9.89 µM	> 100 µM	> 100 µM	> 100 µM	8.65 µM	3.51 µM	> 100 µM	3.17	2.53 µM	2	2.66	3.22	2.28 µM	3.44	2.5 µM	1.47	3.4
